Measured values taken from PMC6695594, “Discovery of (5-Phenylfuran-2-yl)methanamine Derivatives as New Human Sirtuin 2 Inhibitors” (Molecules, 2019).

Experiments:
human sirtuin 2 (SIRT2) [1] = target: T1, human sirtuin 2 (SIRT2) (Homo sapiens, UniProt Q8IXJ6); assay: biochemical; set-up: Fluorogenic p2270 (Ac-Glu-Thr-Asp-Lys(Dec)-AMC) trypsin-coupled assay on recombinant human SIRT2, ex 380/em 460 nm; details: for inhibition at 10 µM: read-out: Inhibition% ^1/SIRT2-p2270 / @ 10 μM
T1 sequence (Q8IXJ6 2-389): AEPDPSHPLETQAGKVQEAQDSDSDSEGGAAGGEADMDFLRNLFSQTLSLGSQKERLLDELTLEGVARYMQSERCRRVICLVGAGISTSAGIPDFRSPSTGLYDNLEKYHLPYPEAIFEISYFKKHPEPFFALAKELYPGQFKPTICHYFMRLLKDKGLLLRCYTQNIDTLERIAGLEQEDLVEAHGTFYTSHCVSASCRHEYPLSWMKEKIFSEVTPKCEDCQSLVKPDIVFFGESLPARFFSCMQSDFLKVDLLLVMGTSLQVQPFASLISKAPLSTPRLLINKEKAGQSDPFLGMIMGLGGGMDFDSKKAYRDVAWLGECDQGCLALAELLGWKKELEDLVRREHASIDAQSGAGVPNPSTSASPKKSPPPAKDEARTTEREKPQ
Protocol: This study tested the inhibitory activities of the synthesized compounds against recombinant human SIRT2 proteins using a fluorogenic substrate p2270(Ac-Glu-Thr-Asp-Lys(Dec)-AMC)-coupled trypsin assay. The assay buffer is 25 mM Tris–HCl pH 8.0, 150 mM NaCl, and 10% glycerol. The test compounds were added to 60 μL of reaction mixture containing SIRT2 enzymes (0.2 μM), and each compound was prepared in a 3-fold dilution series (300 μM–15 nM) with the final DMSO concentration < 1%. After incubation at 25 °C for 30 min, the reaction started by the addition of the substrate p2270 ([…]) and NAD^+([…]) at 25 °C. After 2 h, 50 μL 3~4 U/μL trypsin and 4 mM nicotinamide were added to terminate the reaction, followed by further incubation for 30 min at 25 °C. The fluorescence intensity was measured using a microplate reader (λex = 380 nm, λem = 460 nm). All determinations were performed in triplicate. The IC50 values were obtained using GraphPad Prism software as described previously. The enzyme activity assays were performed using a fluorogenic-based method, and Ac-Glu-Thr-Asp-Lys(Dec)-AMC, termed p2270, was used as the substrate. The SAR studies with all of the synthesized (5-phenylfuran-2-yl)methanamine derivatives (Table 1 and Table 2) were carried out. The compounds bearing various linkers or different substituents (A moiety) at 3- or 4-position of the [compound left out] of (5-phenylfuran-2-yl)methanamine scaffold (Table 1) were firstly investigated.

human sirtuin 2 (SIRT2) [2] = target: T1, human sirtuin 2 (SIRT2); assay: fluorogenic p2270 trypsin-coupled assay, recombinant human SIRT2; assay type: biochemical; details: read-out: Inhibition% ^1/SIRT2-p2270 / @ 100 μM
human sirtuin 2 (SIRT2) [3] = target: T1, human sirtuin 2 (SIRT2); assay: as above; assay type: biochemical

inhibition at 10 µM (human sirtuin 2 (SIRT2) [1]) | inhibition at 100 µM (human sirtuin 2 (SIRT2) [1]; read-out: Inhibition% ^1/SIRT2-p2270 / @ 100 μM) | inhibition at 100 µM (human sirtuin 2 (SIRT2) [2]) | IC50 (human sirtuin 2 (SIRT2) [3]) | SMILES
23 ± 3% | – | 44 ± 5% | – | O=C(O)c1ccc(-c2ccc(CNC(=S)Nc3ccccc3)o2)cc1 [compound 22, 4-(5-((3-Phenylthioureido)methyl)furan-2-yl)benzoic Acid]
– | – | 43 ± 2% | – | O=C(NCc1ccc(-c2ccc(C(=O)O)c(O)c2)o1)Nc1ccccc1 [compound 24, 2-Hydroxy-4-(5-((3-phenylureido)methyl)furan-2-yl)benzoic Acid]
– | – | – | 2470 nM | O=C(NCc1ccc(-c2ccc(C(=O)O)cc2)o1)Nc1cccnc1 [compound 25, 4-(5-((3-(Pyridin-3-yl)ureido)methyl)furan-2-yl)benzoic Acid]

Further lines, the molecule ahead of its results:

SMILES | inhibition at 10 µM (human sirtuin 2 (SIRT2) [1]) | inhibition at 100 µM (human sirtuin 2 (SIRT2) [1]; read-out: Inhibition% ^1/SIRT2-p2270 / @ 100 μM) | inhibition at 100 µM (human sirtuin 2 (SIRT2) [2]) | IC50 (human sirtuin 2 (SIRT2) [3])
N#C/C(=C\c1ccc(-c2cc(Cl)ccc2Cl)o1)C(=O)Nc1cccc2ncccc12 [AGK2] | 30 ± 5% | 80 ± 6% | – | –
O=C(NCc1ccc(-c2cc(Cl)ccc2Cl)o1)Nc1cccc2ncccc12 [compound 12, 1-((5-(2,5-Dichlorophenyl)furan-2-yl)methyl)-3-(quinolin-5-yl)urea] | 33 ± 3% | – | 60 ± 3% | –
CCOC(=O)c1ccc(-c2ccc(CNC(=O)Nc3cccnc3)o2)cc1 [compound 17, Ethyl 4-(5-((3-(pyridin-3-yl)ureido)methyl)furan-2-yl)benzoate] | – | – | 50 ± 4% | –
O=C(NCc1ccc(-c2ccc(C(F)(F)F)cc2)o1)Nc1cccnc1 [compound 18, 1-(Pyridin-3-yl)-3-((5-(4-(trifluoromethyl)phenyl)furan-2-yl)methyl)urea] | – | – | 40 ± 5% | –
O=C(NCc1ccc(-c2ccc(C(=O)O)cc2)o1)Nc1cccc2ncccc12 [compound 20, 4-(5-((3-(quinolin-5-yl)ureido)methyl)furan-2-yl)benzoic acid] | 35 ± 3% | – | 63 ± 5% | –
O=C(NCc1ccc(-c2ccc(C(=O)O)cc2)o1)Nc1ccccc1 [compound 21, 4-(5-((3-Phenylureido)methyl)furan-2-yl)benzoic Acid] | 33 ± 3% | – | 46 ± 4% | –
